For one compound, melting point results are on record in patent US6617325B1, “Biphenyl derivatives, production thereof and uses as medicines” (Boehringer Ingelheim Pharma KG, priority 1999, dated 2003).

Molecules are shown by their SMILES.

`CCC(CCCN1CCC(NC(=O)c2ccccc2-c2ccc(C(F)(F)F)cc2)CC1)(CC(=O)OC)c1ccccc1` (stereo not shown) [Example 2, Methyl 2-ethyl-2-phenyl-5-{4-[(4′-trifluoromethyl-biphenyl-2-carbonyl)-amino]-piperidin-1-yl}-pentanecarboxylate] gave a melting point of 110 °C.
